For 27 compounds, Kd results are on record in US10647713B2 (Nimbus Lakshmi, Inc., priority 2016, dated 2020).

Sequence of human TYK2 (JH2domain-pseudokinase) (P29597 556-888): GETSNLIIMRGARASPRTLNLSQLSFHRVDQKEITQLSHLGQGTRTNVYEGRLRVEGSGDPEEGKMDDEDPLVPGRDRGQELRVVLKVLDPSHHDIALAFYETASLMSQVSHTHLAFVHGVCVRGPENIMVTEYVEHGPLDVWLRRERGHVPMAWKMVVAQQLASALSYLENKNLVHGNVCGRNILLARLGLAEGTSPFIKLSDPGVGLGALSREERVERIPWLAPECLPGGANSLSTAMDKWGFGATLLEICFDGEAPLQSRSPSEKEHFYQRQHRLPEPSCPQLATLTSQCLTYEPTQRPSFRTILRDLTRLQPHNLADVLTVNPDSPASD

This experiment addresses human TYK2 (JH2domain-pseudokinase) (Homo sapiens (Human), UniProt P29597). The experiment is described as follows: TYK2 JH2 Domain Binding Assay (KINOMEscan, DiscoveRx). To be noted: 11-point dilution, duplicate. A digest of the protocol:
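Kd from duplicate 11-point 3-fold dilutions starting at 30,000 nM, fitted by Hill equation with slope fixed at −1. Compounds (final 0.9% DMSO) displace DNA-tagged HEK293-expressed TYK2 JH2 fusion (<0.1 nM) from ligand-coated beads over 1 h at room temperature; eluted kinase read by qPCR.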
Broadly, the Kd is a measure of binding affinity in units of concentration. Higher therefore signals lower affinity. Turning to `CS(=O)(=O)c1cc([C@@H]2CCOC2)ccc1Nc1cc(NC(=O)C2CC2)nc2[nH]c(C(F)F)nc12` [I-452, (S)—N-(2-(difluoromethyl)-7-((2-(methylsulfonyl)-4-(tetrahydrofuran-3-yl)phenyl)amino)-3H-imidazo[4,5-b]pyridin-5-yl)cyclopropanecarboxamide], the Kd fell in the range of 0.5 to 1 nM. The compound `CS(=O)(=O)c1cc([C@H]2CCOC2)ccc1Nc1cc(NC(=O)C2CC2)nc2[nH]c(C(F)F)nc12` [I-453, (R)—N-(2-(difluoromethyl)-7-((2-(methylsulfonyl)-4-(tetrahydrofuran-3-yl)phenyl)amino)-3H-imidazo[4,5-b]pyridin-5-yl)cyclopropanecarboxamide] displayed a Kd of 0.1 to 0.5 nM. For the compound `CO[C@H](C)c1ccc(Nc2cc(NC(=O)C3CC3)nc3[nH]c(C(F)F)nc23)c(S(C)(=O)=O)c1` [I-454, (R)—N-(2-(difluoromethyl)-7-((4-(1-methoxyethyl)-2-(methylsulfonyl)phenyl)amino)-3H-imidazo[4,5-b]pyridin-5-yl)cyclopropanecarboxamide], the Kd was in the range of 0.5 to 1 nM.

On to `CO[C@@H](C)c1ccc(Nc2cc(NC(=O)C3CC3)nc3[nH]c(C(F)F)nc23)c(S(C)(=O)=O)c1` [I-455, (S)—N-(2-(difluoromethyl)-7-((4-(1-methoxyethyl)-2-(methylsulfonyl)phenyl)amino)-3H-imidazo[4,5-b]pyridin-5-yl)cyclopropanecarboxamide], for which the Kd is 1 to 10 nM.

In turn, `[2H]C([2H])([2H])S(=O)(=O)N(C)c1ccccc1Nc1cc(Nc2cc(C)nc(C)n2)nc2[nH]c(C)nc12` [I-456, N-(2-((5-((2,6-dimethylpyrimidin-4-yl)amino)-2-methyl-3H-imidazo[4,5-b]pyridin-7-yl)amino)phenyl)-N-methylmethanesulfonamide-d3] displayed a Kd of 0.1 to 0.5 nM.

As to `[2H]C([2H])([2H])N(c1ccccc1Nc1cc(Nc2cc(C)nc(C)n2)nc2[nH]c(C(F)F)nc12)S(=O)(=O)C([2H])([2H])[2H]` [I-457, N-(2-((2-(difluoromethyl)-5-((2,6-dimethylpyrimidin-4-yl)amino)-3H-imidazo[4,5-b]pyridin-7-yl)amino)phenyl)-N-(methyl-d3)methanesulfonamide-d3], the Kd was 0.1 to 0.5 nM. The compound `[2H]C([2H])([2H])N(c1ccccc1Nc1cc(Nc2cc(C)nc(C)n2)nc2[nH]c(C)nc12)S(=O)(=O)C([2H])([2H])[2H]` [I-458, N-(2-((5-((2,6-dimethylpyrimidin-4-yl)amino)-2-methyl-3H-imidazo[4,5-b]pyridin-7-yl)amino)phenyl)-N-(methyl-d3)methanesulfonamide-d3] showed a Kd of 0.1 to 0.5 nM. Compound `Cc1cn(C)nc1-c1ccc(Nc2cc(NC(=O)[C@@H]3CC3(C)C)nc3[nH]c(C(F)F)nc23)c(S(C)(=O)=O)c1` [I-459, (R)—N-(2-(difluoromethyl)-7-((4-(1,4-dimethyl-1H-pyrazol-3-yl)-2-(methylsulfonyl)phenyl)amino)-3H-imidazo[4,5-b]pyridin-5-yl)-2,2-dimethylcyclopropane-1-carboxamide] returned a Kd of 1 to 10 nM. For the compound `Cc1cn(C)nc1-c1ccc(Nc2cc(NC(=O)[C@H]3CC3(C)C)nc3[nH]c(C(F)F)nc23)c(S(C)(=O)=O)c1` [I-460, (S)—N-(2-(difluoromethyl)-7-((4-(1,4-dimethyl-1H-pyrazol-3-yl)-2-(methylsulfonyl)phenyl)amino)-3H-imidazo[4,5-b]pyridin-5-yl)-2,2-dimethylcyclopropane-1-carboxamide], the Kd was in the range of 1 to 10 nM. Consider `Cc1cn(C)c(-c2ccc(Nc3cc(NC(=O)C4CC4)nc4[nH]c(C)nc34)c(S(C)(=O)=O)c2)n1` [I-461, N-(7-((4-(1,4-dimethyl-1H-imidazol-2-yl)-2-(methylsulfonyl)phenyl)amino)-2-methyl-3H-imidazo[4,5-b]pyridin-5-yl)cyclopropanecarboxamide], for which the Kd was 0.1 to 0.5 nM. With `Cc1nc2c(Nc3ccc(-c4ncc(C)n4C)cc3S(C)(=O)=O)cc(NC(=O)C3CC3)nc2[nH]1` [I-462, N-(7-((4-(1,5-dimethyl-1H-imidazol-2-yl)-2-(methylsulfonyl)phenyl)amino)-2-methyl-3H-imidazo[4,5-b]pyridin-5-yl)cyclopropanecarboxamide], the Kd was in the range of 0.1 to 0.5 nM. `Cc1csc(-c2ccc(Nc3cc(Nc4cnc(C)c(C)n4)nc4[nH]c(C(F)F)nc34)c(S(C)(=O)=O)c2)n1` [I-463, 2-(difluoromethyl)-N5-(5,6-dimethylpyrazin-2-yl)-N7-(2-(methylsulfonyl)-4-(4-methylthiazol-2-yl)phenyl)-3H-imidazo[4,5-b]pyridine-5,7-diamine]: the equilibrium dissociation constant (Kd) was in the range of 1 to 10 nM. In turn, `Cc1csc(-c2ccc(Nc3cc(Nc4cnc(C)c(C)n4)nc4[nH]c(C)nc34)c(S(C)(=O)=O)c2)n1` [I-464, N5-(5,6-dimethylpyrazin-2-yl)-2-methyl-N7-(2-(methylsulfonyl)-4-(4-methylthiazol-2-yl)phenyl)-3H-imidazo[4,5-b]pyridine-5,7-diamine] showed a Kd of 0.5 to 1 nM. Then `Cc1nc2c(Nc3ccc(-c4nc(C)c(C)s4)cc3S(C)(=O)=O)cc(Nc3cnc(C)c(C)n3)nc2[nH]1` [I-466, N5-(5,6-dimethylpyrazin-2-yl)-N7-(4-(4,5-dimethylthiazol-2-yl)-2-(methylsulfonyl)phenyl)-2-methyl-3H-imidazo[4,5-b]pyridine-5,7-diamine], with 0.5 to 1 nM; and `Cc1cc(Nc2cc(Nc3ccc(-c4nc(C)cs4)cc3S(C)(=O)=O)c3nc(C(F)F)[nH]c3n2)nc(C)n1` [I-467, 2-(difluoromethyl)-N5-(2,6-dimethylpyrimidin-4-yl)-N7-(2-(methylsulfonyl)-4-(4-methylthiazol-2-yl)phenyl)-3H-imidazo[4,5-b]pyridine-5,7-diamine], with 0.1 to 0.5 nM; and `Cc1cc(Nc2cc(Nc3ccc(-c4nc(C)cs4)cc3S(C)(=O)=O)c3nc(C)[nH]c3n2)nc(C)n1` [I-468, N5-(2,6-dimethylpyrimidin-4-yl)-2-methyl-N7-(2-(methylsulfonyl)-4-(4-methylthiazol-2-yl)phenyl)-3H-imidazo[4,5-b]pyridine-5,7-diamine], with 0.1 to 0.5 nM. Compound `Cc1cc(Nc2cc(Nc3ccc(-c4nc(C)c(C)s4)cc3S(C)(=O)=O)c3nc(C(F)F)[nH]c3n2)nc(C)n1` [I-469, 2-(difluoromethyl)-N5-(2,6-dimethylpyrimidin-4-yl)-N7-(4-(4,5-dimethylthiazol-2-yl)-2-(methylsulfonyl)phenyl)-3H-imidazo[4,5-b]pyridine-5,7-diamine] displayed a Kd of 0.5 to 1 nM. `Cc1cc(Nc2cc(Nc3ccc(-c4nc(C)c(C)s4)cc3S(C)(=O)=O)c3nc(C)[nH]c3n2)nc(C)n1` [I-470, N5-(2,6-dimethylpyrimidin-4-yl)-N7-(4-(4,5-dimethylthiazol-2-yl)-2-(methylsulfonyl)phenyl)-2-methyl-3H-imidazo[4,5-b]pyridine-5,7-diamine] yielded a Kd of 0.1 to 0.5 nM. `CC1(C)COC(c2ccc(Nc3cc(NC(=O)[C@H]4C[C@H]4F)nc4[nH]c(C(F)F)nc34)c(S(C)(=O)=O)c2)=N1` [I-471, (1R,2R)—N-(2-(difluoromethyl)-7-((4-(4,4-dimethyl-4,5-dihydrooxazol-2-yl)-2-(methylsulfonyl)phenyl)amino)-3H-imidazo[4,5-b]pyridin-5-yl)-2-fluorocyclopropane-1-carboxamide]: the Kd was 1 to 10 nM.

Consider `Cc1nc2c(Nc3ccc([C@@H]4CCCO4)cc3S(C)(=O)=O)cc(NC(=O)C3CC3)nc2[nH]1` [I-472, (S)—N-(2-methyl-7-((2-(methylsulfonyl)-4-(tetrahydrofuran-2-yl)phenyl)amino)-3H-imidazo[4,5-b]pyridin-5-yl)cyclopropanecarboxamide], for which the Kd was in the range of 0.1 to 0.5 nM. Turning to `Cc1nc2c(Nc3ccc([C@H]4CCCO4)cc3S(C)(=O)=O)cc(NC(=O)C3CC3)nc2[nH]1` [I-473, (R)—N-(2-methyl-7-((2-(methylsulfonyl)-4-(tetrahydrofuran-2-yl)phenyl)amino)-3H-imidazo[4,5-b]pyridin-5-yl)cyclopropanecarboxamide], the Kd was < 0.1 nM. Under `Cc1nc2c(Nc3ccc([C@H]4CCCCO4)cc3S(C)(=O)=O)cc(Nc3cnc(C)c(C)n3)nc2[nH]1` [I-474, (R)—N5-(5,6-dimethylpyrazin-2-yl)-2-methyl-N7-(2-(methylsulfonyl)-4-(tetrahydro-2H-pyran-2-yl)phenyl)-3H-imidazo[4,5-b]pyridine-5,7-diamine] stands < 0.1 nM; under `Cc1nc2c(Nc3ccc([C@@H]4CCCCO4)cc3S(C)(=O)=O)cc(Nc3cnc(C)c(C)n3)nc2[nH]1` [I-475, (S)—N5-(5,6-dimethylpyrazin-2-yl)-2-methyl-N7-(2-(methylsulfonyl)-4-(tetrahydro-2H-pyran-2-yl)phenyl)-3H-imidazo[4,5-b]pyridine-5,7-diamine], 0.1 to 0.5 nM.

Take `Cc1csc(-c2ccc(Nc3cc(Nc4cc5n(n4)CCOC5)nc4[nH]c(C(F)F)nc34)c(S(C)(=O)=O)c2)n1` [I-476]: the Kd lay in the range of 0.1 to 0.5 nM. Under `Cc1csc(-c2ccc(Nc3cc(Nc4cc5n(n4)CCOC5)nc4[nH]c(C)nc34)c(S(C)(=O)=O)c2)n1` [I-477, N5-(6,7-dihydro-4H-pyrazolo[5,1-c][1,4]oxazin-2-yl)-2-methyl-N7-(2-(methylsulfonyl)-4-(4-methylthiazol-2-yl)phenyl)-3H-imidazo[4,5-b]pyridine-5,7-diamine] stands 0.1 to 0.5 nM; under `Cc1nc2c(Nc3ccc(-c4nn(C)cc4C)cc3S(C)(=O)=O)cc(NC(=O)[C@@H]3CC3(C)C)nc2[nH]1` [I-478, (R)—N-(7-((4-(1,4-dimethyl-1H-pyrazol-3-yl)-2-(methylsulfonyl)phenyl)amino)-2-methyl-3H-imidazo[4,5-b]pyridin-5-yl)-2,2-dimethylcyclopropane-1-carboxamide], 1 to 10 nM; under `Cc1nc2c(Nc3ccc(-c4nn(C)cc4C)cc3S(C)(=O)=O)cc(NC(=O)[C@H]3CC3(C)C)nc2[nH]1` [I-479, (S)—N-(7-((4-(1,4-dimethyl-1H-pyrazol-3-yl)-2-(methylsulfonyl)phenyl)amino)-2-methyl-3H-imidazo[4,5-b]pyridin-5-yl)-2,2-dimethylcyclopropane-1-carboxamide], 1 to 10 nM.
